This is an account of results in patent US10576151B2, “Ciclopirox for use in modulation of glucose homeostasis” (UNIVERSITY OF SOUTH CAROLINA, priority 2015, dated 2020).

One test relates to p21. Kind of test: p21 expression in the pancreas of mice that received CPX (immunoblot). It counts as in vivo. To be noted: wild type mice, oral CPX 0-25 mg/kg daily for 5 days; effect from as low as 5 mg/kg (FIG. 4). The protocol: Western Blotting. The mouse islets were treated with CPX 20 μM for 24 h and lysed in RIPA buffer [50 mM Tris, pH 7.2; 150 mM NaCl; 1% sodium deoxycholate; 0.1% SDS; 1% Triton-X 100; 10 mM NaF; 1 mM Na3VO4; protease inhibitor cocktail (1:1000, Sigma, St. Louis, Mo.)] and were subjected to immunoblot analysis by standard methods. Proteins were resolved on a 10% SDS-PAGE and transferred to a nitrocellulose membrane (Bio-Rad, Hercules, Calif.). […] After incubation with enhanced chemiluminescence reagents (Santa Cruz biotechnology Inc.), membranes were analyzed using an Image J software for Windows. To determine if CPX treatment induces p21 levels in the pancreas, mice received orally CPX at 0-25 mg/kg daily for 5 days and the levels of p21 were assessed. […]

A further test concerns p21-deficient mice. As to the kind of experiment: Fasting glucose in diet-induced diabetic p21-deficient mice. The test is classed as in vivo. The settings on record: CPX as in wt controls, delayed response (FIG. 5A). The source says: In Vivo Analysis of Anti-Diabetic Effect of CPX. Mice were randomly grouped. A group of C57BI/6 mice 4-5 weeks old, were fed with either a solution of 10% sucrose and a diet containing 40% kcal as a high-fat diet (HFD; Open Source Diets (New Brunswick, N.J., USA) D12451, 40% calories/fat with free access to (10%) sweetened water (sucrose) or a control chow diet containing 10% of kcal as fat (low-fat diet) and drinking water with no added sucrose (control). Mice with a glucose concentration exceeding 180 mg/dL were considered diabetic, after 2 consecutive glucose measurements. The blood glucose levels were measured using an Accu-Check blood glucose monitor (Roche, Indianapolis, Ind., USA) using blood sample collected from the tail vein. Diabetic mice were treated with either treated daily for 20 days by oral gavages with CPX (25 mg/kg) prepared in a solution (4% ethanol, 5.2% Tween 80, and 5.2% PEG 400) or vehicle control. […]
Glucose Level Determination and Intraperitoneal Insulin Tolerance Test. […] Glucose levels of mice were measured by an Accu-Chek Active meter (ROCHE) with blood sample obtained from the tail. […] For insulin resistance test, mice were injected intraperitoneally at a dose of 0.75 units/kg with human insulin (0.75 U/kg body weight; Sigma) at different time points as indicated, as for glucose tolerance after insulin injection and blood glucose was measured as described. […]

For the next test, the system named is C57BI/6 mice. Kind of test: Glucose tolerance test (i.p. 2 g glucose/kg). It counts as in vivo. The protocol: Glucose Level Determination and Intraperitoneal Insulin Tolerance Test. Mice were fasted for 6 h. Glucose levels of mice were measured by an Accu-Chek Active meter (ROCHE) with blood sample obtained from the tail. For glucose tolerance, mice were injected i.p. with 2 g glucose/kg blood glucose was checked at different time points as indicated (at either 0, 30, 60, 90, 120, 160, 220 min.). For insulin resistance test, mice were injected intraperitoneally at a dose of 0.75 units/kg with human insulin (0.75 U/kg body weight; Sigma) at different time points as indicated, as for glucose tolerance after insulin injection and blood glucose was measured as described.

The subject of the next test is pancreatic islets. As to the kind of experiment: Insulin release from islets following glucose stimulation. The test is classed as cell-based, mice. The settings on record: insulin in the media (FIG. 11A). The procedure:
In order to understand better how CPX operates in β cells, it was tested to determine if it affected the efficiency by which insulin is produced following glucose stimulation. […] In view of the antidiabetic activity of CPX in vivo, the inhibition of insulin release appears contradictory. Thus, it was hypothesized that reduced insulin secretion may be linked to reduced ER stress and blunted unfolded protein response, which in turn could explain in the long run the increased survival and functionality of the animals that received CPX. To test this hypothesis, islets were exposed to CPX and high glucose and the levels were tested of chaperones BiP, GRP94 and CHOP that reflect the intensity of the UPR. […] In line with these observations and consistently with the insulin levels in the media (FIG. 11 at A) were also the levels of insulin in the β islets (FIG. 11 at B).

The test system of the next test is ROS. As to the kind of experiment: Cellular ROS production in islets (DCFDA assay). The test is classed as cell-based, mice. The protocol:
Measurement of Cellular ROS Production. Islets were incubated with KR buffer containing 0.01% (w/v) bovine serum albumin (BSA), 16 mM HEPES, and 2.8 mM glucose for 60 min at 37° C. ROS measurements were measured by using the DCFDA Cellular ROS Detection Assay Kit (Abcam/Mitosciences) in a 96-well dark microplate in accordance with the manufacturer's guidelines. Briefly, 30 islets were seeded into each well. On the day of the experiment, the islets were washed with 1×phosphate buffered saline and stained with 20 μM DCFH-DA in the dark for 30 min at 37° C. After incubation, DCFH-DA was removed, and the islets were washed with 1×buffer solution. Islets were seeded in a 96-well plate followed by high glucose alone or in combination with CPX glucose treatment and iron citrate alone or in combination with CPX treatment. Samples were analyzed using a Varioskan Flash micro-plate reader (Thermo-Scientific) with excitation wavelength at 485 nm and an emission wavelength at 535 nm. Tert-Butyl hydroperoxide (TBHP) was used as positive control.

Entries after “also recorded” stand apart in the source; their conditions may differ.

For `Cc1cc(C2CCCCC2)n(O)c(=O)c1` [CPX, 6-cyclohexyl-1-hydroxy-4-methylpyridin-2(1H)-one], in the test with p21, the “p21 expression in the pancreas” value is “effectively stimulated the expression of p21”. Moreover, in the test with p21-deficient mice, the “glucose regulation (fasting glucose)” value was “responded significantly to CPX in terms of glucose regulation”. The glucose tolerance entry is “restored the response of diabetic mice to acute administration of glucose” in the test on C57BI/6 mice (diabetic mice, CPX vs saline (FIG. 6A)) and “not affected” in the test with C57BI/6 mice (non-diabetic wt mice on normal diet, CPX vs saline (FIG. 7B)). Moreover, the release of insulin result in the test on pancreatic islets is reported as “strong inhibition of insulin production; also recorded: suppressed the release of insulin”. Besides, the ROS production entry in the test on ROS (ROS triggered by high glucose (FIG. 12B)) and with ROS (ROS triggered by iron citrate (FIG. 12B)) was “potent inhibitor of ROS” throughout.
